Laboratory results from patent publication US20170368082A1, “FORMULATIONS OF BRINCIDOFOVIR” (priority 2016, published 2017).

Experiment: PBMC PK of CDV-PP following IV and oral suspension BCV
Type: in vivo, human
Conditions: PBMC CDV-PP
Procedure: Two single dose BCV studies in healthy subjects contributed data for this analysis. The first study was a 2-period crossover bioequivalence study that enrolled 24 subjects who received two formulations of BCV oral suspension 100 mg fasted, one in each period. Data from 12 subjects who had PBMCs collected in Period 1 were included in this analysis; these subjects were 100% female, 31-59 years, and 58-88 kg. The second study, outlined above, enrolled 40 subjects who received IV BCV or placebo. Data from 18 subjects who received BCV 50 mg as either a 2-h or 4-h IV infusion were included in this analysis; these subjects were 100% male, 18-46 years, 64-106 kg. Serial PBMC samples were collected over 14 days and assayed by HPLC-MS-MS. PBMC CDV-PP PK parameters were determined by non-compartmental analysis.

[1] = BCV 50 mg IV 2 h Infusion, n = 9
[2] = BCV 50 mg IV 4 h Infusion, n = 9
[3] = BCV 100 mg Oral suspension, n = 12

cidofovir diphosphate [CDV-PP]
AUClast [1]: 1409 pg · h/10^6 cells | Cmax [1]: 14.3 pg/10^6 cells | AUClast [2]: 963 pg · h/10^6 cells | Cmax [2]: 8.41 pg/10^6 cells | AUClast [3]: 1107 pg · h/10^6 cells | Cmax [3]: 7.68 pg/10^6 cells
